Assay [1] has as its system normal human dermal/fibroblasts. Put plainly: MTT cytotoxicity assay, normal fibroblasts. The class given is cell-based. Particulars: Homo sapiens, Fibroblast, 72 h, read-out: IC50 ± SD, Fibro dental.
Assay [2] deals with PC3 (human prostate carcinoma). Nature of the assay: MTT cytotoxicity assay, PC3. The class given is cell-based. Particulars: 72 h, read-out: IC50 ± SD, PC-3.
Assay [3] concerns HepG2 (hepatocellular carcinoma). Put plainly: MTT cytotoxicity assay, HepG2. The class given is cell-based, human. As to conditions: Homo sapiens, HepG2, 72 h, read-out: IC50 ± SD, HEPG-2.
Assay [4] deals with MCF-7 (human breast adenocarcinoma). Put plainly: MTT cytotoxicity assay, MCF-7. As to conditions: Homo sapiens, MCF7, 72 h, read-out: IC50 ± SD, MCF7. The class given is cell-based.

Take `Cc1nc([N+](=O)[O-])c(Br)n1Cc1ccccc1` [Compound 3, 5-bromo-N1-benzyl-2-methyl-4-nitroimidazole]: the IC50 in assay [1], in assay [2] and in assay [3] was greater than 500 µM throughout.
With `CSc1ccccc1-n1cc(CN2CCN(c3c([N+](=O)[O-])nc(C)n3Cc3ccccc3)CC2)nn1` [Compound 11b, 1-(N1-benzyl-2-methyl-4-nitro-1H-imidazole-5-yl)-4-((N1-(2-(methylthio)phenyl)-1H-1,2,3-triazol-4-yl)methyl)piperazine], the IC50 in assay [4] worked out at 136 ± 60 µM.
Take `CCc1ccccc1-n1cc(CN2CCN(c3c([N+](=O)[O-])nc(C)n3Cc3ccccc3)CC2)nn1` [Compound 11h, 1-(N1-benzyl-2-methyl-4-nitro-1H-imidazole-5-yl)-4-((N1-(2-ethylphenyl)-1H-1,2,3-triazol-4-yl)methyl)piperazine]: the IC50 in assay [4] was determined as 88 ± 37 µM.
`Cc1ccccc1-n1cc(CN2CCN(c3c([N+](=O)[O-])nc(C)n3Cc3ccccc3)CC2)nn1` [Compound 11g, 1-(N1-benzyl-2-methyl-4-nitro-1H-imidazole-5-yl)-4-((N1-(o-tolyl)-1H-1,2,3-triazol-4-yl)methyl)piperazine]: the IC50 in assay [4] amounted to 183 ± 10 µM.
With `Cc1nc([N+](=O)[O-])c(N2CCN(Cc3cn(-c4ccccc4)nn3)CC2)n1Cc1ccccc1` [Compound 11d, 1-(N1-benzyl-2-methyl-4-nitro-1H-imidazole-5-yl)-4-((N1-phenyl-1H-1,2,3-triazol-4-yl)methyl)piperazine], in assay [4], the IC50 was found to be 312 ± 65 µM.
With `Cc1ccc(-n2cc(CN3CCN(c4c([N+](=O)[O-])nc(C)n4Cc4ccccc4)CC3)nn2)cc1` [Compound 11e, 1-(N1-benzyl-2-methyl-4-nitro-1H-imidazole-5-yl)-4-((N1-(p-tolyl)-1H-1,2,3-triazol-4-yl)methyl)piperazine], the IC50 in assay [4] was determined as 219 ± 12 µM.
Take `Cc1cccc(-n2cc(CN3CCN(c4c([N+](=O)[O-])nc(C)n4Cc4ccccc4)CC3)nn2)c1` [Compound 11 m, 1-(N1-benzyl-2-methyl-4-nitro-1H-imidazole-5-yl)-4-((N1-(m-tolyl)-1H-1,2,3-triazol-4-yl)methyl)piperazine]: the 50% inhibitory concentration (IC50) in assay [1] was greater than 500 µM; in assay [2], greater than 500 µM; in assay [3], greater than 500 µM; in assay [4], 161 ± 16 µM.
In the case of `Cc1nc([N+](=O)[O-])c(N2CCN(Cc3cn(Cc4ccc(Br)cc4)nn3)CC2)n1Cc1ccccc1` [Compound 9b, 1-(N1-benzyl-2-methyl-4-nitro-imidazole-5-yl)-4-((N1-(4-bromobenzyl)-1H-1,2,3-triazol-4-yl)methyl)piperazine], the IC50 in assay [1] was greater than 500 µM; in assay [4], 79 ± 21 µM.
Consider `Cc1nc([N+](=O)[O-])c(N2CCN(Cc3cn(-c4cccc5c4CCCC5)nn3)CC2)n1Cc1ccccc1` [Compound 11o, 1-(N1-benzyl-2-methyl-4-nitro-1H-imidazole-5-yl)-4-((N1-(5,6,7,8-tetrahydronaphthalen-1-yl)-1H-1,2,3-triazol-4-yl)methyl)piperazine], for which the IC50 was greater than 500 µM in assay [1], greater than 500 µM in assay [2] and 131 ± 30 µM in assay [4].
For the compound `Cc1nc([N+](=O)[O-])c(N2CCN(Cc3cn(-c4cccc5ccccc45)nn3)CC2)n1Cc1ccccc1` [Compound 11q, 1-(N1-benzyl-2-methyl-4-nitro-1H-imidazole-5-yl)-4-((N1-(naphthalen-1-yl)-1H-1,2,3-triazol-4-yl)methyl)piperazine], in assay [4], the half-maximal inhibitory concentration (IC50) came to 270 ± 40 µM.
In the case of `Cc1cccc(Cn2cc(CN3CCN(c4c([N+](=O)[O-])nc(C)n4Cc4ccccc4)CC3)nn2)c1` [Compound 9e, 1-(N1-benzyl-2-methyl-4-nitro-imidazole-5-yl)-4-((N1-(3-methylbenzyl)-1H-1,2,3-triazol-4-yl)methyl)piperazine], the IC50 in assay [1] was greater than 500 µM; in assay [2], greater than 500 µM; in assay [3], greater than 500 µM; in assay [4], 79 ± 21 µM.
Take `Cc1nc([N+](=O)[O-])c(N2CCN(Cc3cn(-c4cccc(Cl)c4)nn3)CC2)n1Cc1ccccc1` [Compound 11n, 1-(N1-benzyl-2-methyl-4-nitro-1H-imidazole-5-yl)-4-((N1-(3-chlorophenyl)-1H-1,2,3-triazol-4-yl)methyl)piperazine]: the IC50 is greater than 500 µM in assay [1] and 155 ± 70 µM in assay [4].
Turning to `Cc1nc([N+](=O)[O-])c(N2CCN(Cc3cn(Cc4cccc([N+](=O)[O-])c4)nn3)CC2)n1Cc1ccccc1` [Compound 9d, 1-(N1-benzyl-2-methyl-4-nitro-imidazole-5-yl)-4-((N1-(3-nitrobenzyl)-1H-1,2,3-triazol-4-yl)methyl)piperazine], the IC50 in assay [4] was 40 ± 15 µM.
With `Cc1nc([N+](=O)[O-])c(N2CCN(Cc3cn(-c4ccccc4[N+](=O)[O-])nn3)CC2)n1Cc1ccccc1` [Compound 11i, 1-(N1-benzyl-2-methyl-4-nitro-1H-imidazole-5-yl)-4-((N1-(2-nitrophenyl)-1H-1,2,3-triazol-4-yl)methyl)piperazine], the IC50 in assay [1] was greater than 500 µM; in assay [4], 185 ± 33 µM.
Regarding `Cc1nc([N+](=O)[O-])c(N2CCN(Cc3cn(-c4ccc([N+](=O)[O-])cc4)nn3)CC2)n1Cc1ccccc1` [Compound 11k, 1-(N1-benzyl-2-methyl-4-nitro-1H-imidazole-5-yl)-4-((N1-(4-nitrophenyl)-1H-1,2,3-triazol-4-yl)methyl)piperazine], the IC50 in assay [4] came to 671 ± 140 µM.
Take `C#CCN1CCN(c2c([N+](=O)[O-])nc(C)n2Cc2ccccc2)CC1` [Compound 5, 1-(N1-benzyl-2-methyl-4-nitro-imidazole-5-yl)-4-(prop-2-yn-1-yl)piperazine]: the IC50 is greater than 500 µM in assay [1] and 84 ± 2 µM in assay [4].
Taken in the same sequence, the figures for `Cc1nc([N+](=O)[O-])c(N2CCN(Cc3cn(Cc4ccccc4)nn3)CC2)n1Cc1ccccc1` [Compound 9a, 1-((N1-benzyl-1H-1,2,3-triazol-4-yl)methyl)-4-(N1-benzyl-2-methyl-4-nitro-imidazole-5-yl)piperazine] were greater than 500 µM and 55 ± 40 µM.
Regarding `Cc1nc([N+](=O)[O-])c(N2CCN(Cc3cn(Cc4ccc(F)cc4)nn3)CC2)n1Cc1ccccc1` [Compound 9c, 1-(N1-benzyl-2-methyl-4-nitro-imidazole-5-yl)-4-((N1-(4-fluorobenzyl)-1H-1,2,3-triazol-4-yl)methyl)piperazine], the IC50 is greater than 500 µM in assay [1], greater than 500 µM in assay [2], greater than 500 µM in assay [3] and 24 ± 1.9 µM in assay [4].
As for `Cc1nc([N+](=O)[O-])c(N2CCN(Cc3cn(Cc4ccccc4[N+](=O)[O-])nn3)CC2)n1Cc1ccccc1` [Compound 9h, 1-(N1-benzyl-2-methyl-4-nitro-imidazole-5-yl)-4-((N1-(2-nitrobenzyl)-1H-1,2,3-triazol-4-yl)methyl)piperazine], the IC50 in assay [1] was greater than 500 µM; in assay [4] it was 48 ± 4 µM.
In the case of `Cc1nc([N+](=O)[O-])c(N2CCN(Cc3cn(-c4ccc(Br)cc4)nn3)CC2)n1Cc1ccccc1` [Compound 11a, 1-(N1-benzyl-2-methyl-4-nitro-1H-imidazole-5-yl)-4-((N1-(4-bromophenyl)-1H-1,2,3-triazol-4-yl)methyl)piperazine], the IC50 in assay [1], in assay [2] and in assay [3] was greater than 500 µM each time.
With `Cc1nc([N+](=O)[O-])c(N2CCN(Cc3cn(Cc4cccc(Br)c4)nn3)CC2)n1Cc1ccccc1` [Compound 9f, 1-(N1-benzyl-2-methyl-4-nitro-imidazole-5-yl)-4-((N1-(3-bromobenzyl)-1H-1,2,3-triazol-4-yl)methyl)piperazine], the IC50 in assay [4] was 53 ± 60 µM.
For the compound `Cc1nc([N+](=O)[O-])c(N2CCN(Cc3cn(-c4ccc(Cl)cc4)nn3)CC2)n1Cc1ccccc1` [Compound 11j, 1-(N1-benzyl-2-methyl-4-nitro-1H-imidazole-5-yl)-4-((N1-(4-chlorophenyl)-1H-1,2,3-triazol-4-yl)methyl)piperazine], the IC50 in assay [1] is greater than 500 µM; in assay [2] it was greater than 500 µM; in assay [3] it was greater than 500 µM; in assay [4], 279 ± 20 µM.
`COc1cccc(-n2cc(CN3CCN(c4c([N+](=O)[O-])nc(C)n4Cc4ccccc4)CC3)nn2)c1` [Compound 11l, 1-(N1-benzyl-2-methyl-4-nitro-1H-imidazole-5-yl)-4-((N1-(3-methoxyphenyl)-1H-1,2,3-triazol-4-yl)methyl)piperazine]: the concentration for half-maximal inhibition (IC50) in assay [4] turned out to be 198 ± 10 µM.
Take `Cc1nc([N+](=O)[O-])c(N2CCN(Cc3cn(Cc4ccccc4F)nn3)CC2)n1Cc1ccccc1` [Compound 9j, 1-(N1-benzyl-2-methyl-4-nitro-imidazole-5-yl)-4-((N1-(2-fluorobenzyl)-1H-1,2,3-triazol-4-yl)methyl)piperazine]: the IC50 is greater than 500 µM in assay [1], greater than 500 µM in assay [2], greater than 500 µM in assay [3] and 151 ± 20 µM in assay [4].
Take `CCOc1ccccc1-n1cc(CN2CCN(c3c([N+](=O)[O-])nc(C)n3Cc3ccccc3)CC2)nn1` [Compound 11c, 1-(N1-benzyl-2-methyl-4-nitro-1H-imidazole-5-yl)-4-((N1-(2-ethoxyphenyl)-1H-1,2,3-triazol-4-yl)methyl)piperazine]: the half-maximal inhibitory concentration (IC50) in assay [4] stood at 399 ± 79 µM.
For the compound `Cc1nc([N+](=O)[O-])cn1Cc1ccccc1` [Compound 2, N1-benzyl-2-methyl-4-nitroimidazole], the IC50 in assay [4] was determined as 68 ± 20 µM.
Take `COc1ccc(-n2cc(CN3CCN(c4c([N+](=O)[O-])nc(C)n4Cc4ccccc4)CC3)nn2)cc1` [Compound 11f, 1-(N1-benzyl-2-methyl-4-nitro-1H-imidazole-5-yl)-4-((N1-(4-methoxyphenyl)-1H-1,2,3-triazol-4-yl)methyl)piperazine]: the IC50 in assay [1] was greater than 500 µM; in assay [4], 251 ± 71 µM.

(Values after article PMC10480608 (Heliyon, 2023).)
